This note sets out measurements from patent US6420120B1, “Use of a polypeptide as cell receptor for adenoviruses” (priority 1997, dated 2002).

Holding throughout (test): Bifunctional ligand: Ad5Luc3 attachment to peptide-pretreated cells, luciferase activity
Settings in all cases: 500 μM peptide, 1 h at 0-4° C. before Ad5Luc3

The subject of one assay is NIH-3T3 cells. It counts as cell-based, murine. As for the experimental part: (§1) The human cells (HeLa) or murine cells (Swiss-3T3 or NIH-3T3, ATCC CRL-1658) are rinsed and incubated between 0 and 4° C. with an isotonic solution (PBS) containing 500 μM of peptide. After 1 h, the solution is removed and replaced with the viral inoculum (Ad5Luc3) according to a protocol already described (see above or Hong et al., 1997, EMBO J. 16, 2294-2306). The virus is incubated for 1 hour between 0 and 4° C. to allow its attachment, and then the excess nonadsorbed virus is rinsed with culture medium precooled to 4° C. and the cells are again placed at 37° C. in the presence of culture medium preheated to 37° C. The virus is endocytosed at 37° C. and the viral cycle then lasts for 18 to 20 h at 37° C.

A further assay concerns Swiss-3T3 cells. Format: cell-based, murine. As for the experimental part:
as §1

For another assay, the system named is HeLa cells. It counts as cell-based, human. As for the experimental part:
as §1

As for “GRP-MH20: bifunctional peptide with reverse orientation, GRP at N-terminus and MH20 at C-terminus, SEQ ID No: 23 (KMYPRGNHWAVGHLMRAIVGFRVQWLRRYFVNGSR; listed as Homo sapiens)”, the “increase in the luciferase activity (number of adsorbed viruses) versus no peptide” value is “eight to ten times” in the assay with NIH-3T3 cells, “two to three times” with Swiss-3T3 cells and “five to six times” in the assay with HeLa cells.
“MH20-GRP: bifunctional peptide, MH20 at N-terminus fused to GRP (Gastrin Releasing Peptide), SEQ ID No: 22 (RAIVGFRVQWLRRYFVNGSRKMYPRGNHWAVGHLM; listed as Homo sapiens)”: the “increase in the luciferase activity (number of adsorbed viruses) versus no peptide” value with NIH-3T3 cells, with Swiss-3T3 cells and with HeLa cells was “identical slope” throughout.
